Reference: patent publication US9212130B2, “Heterocyclic derivative and pharmaceutical composition comprising the same” (SHIONOGI & CO., LTD., priority 2010, dated 2015)

Molecular target: human P2X3 receptor (Homo sapiens (Human), UniProt P56373)
Assay: Evaluation of human P2X3 receptor inhibitory activity (ATP-induced Fluo-3 fluorescence, FDSS 3000)
Assay type: cell-based
Details: C6BU-1 cell transfected with human P2X3 receptor gene
Experimental: The plate was placed in High-Throughput Screening System FDSS 3000 (Hamamatsu Photonics K.K.). […] Five minutes after, 50 nM ATP solution (50 μL) prepared by dilution with the dilution buffer was dispensed through the built-in automatic dispenser, and the measurement of fluorescence intensity was continued for 3 min. For each well, the specific maximum fluorescence intensity was calculated as the ratio of the maximum fluorescence intensity after addition of the ATP solution to the fluorescence intensity at the starting of the measurement. […] FDSS software (Hamamatsu Photonics K.K.) was used for calculation of the specific maximum fluorescence intensity. IC50 was calculated using Microsoft Excel (Microsoft. Corporation) and XLfit (idbs Ltd.)
The aforementioned in mM, μM and nM are each means mmol/L, μmol/L and nmol/L, respectively.
In tables, μM means μmol/L.

Chain of human P2X3 receptor (P56373 whole entry): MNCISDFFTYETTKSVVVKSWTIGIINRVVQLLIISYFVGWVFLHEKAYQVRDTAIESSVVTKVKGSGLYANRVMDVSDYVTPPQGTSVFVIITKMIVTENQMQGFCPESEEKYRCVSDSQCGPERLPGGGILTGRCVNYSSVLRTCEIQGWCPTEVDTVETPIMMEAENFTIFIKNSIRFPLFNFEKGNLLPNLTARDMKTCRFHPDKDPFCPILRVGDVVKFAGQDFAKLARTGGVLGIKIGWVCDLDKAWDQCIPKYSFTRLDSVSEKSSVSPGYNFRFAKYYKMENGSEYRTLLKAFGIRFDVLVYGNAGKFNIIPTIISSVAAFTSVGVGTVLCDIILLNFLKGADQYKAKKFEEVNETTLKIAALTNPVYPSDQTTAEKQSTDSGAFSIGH

SMILES	IC50 [nM]
CC(C)Oc1ccc(Nc2[nH]c(=O)n(C)c(=O)c2Cc2ccc(Cl)cc2)cc1F [I-001]	901
CC(C)Oc1ccc(Nc2cc(=O)n(Cc3ccc(Cl)cc3)c(=O)n2Cc2ccc(Cl)cc2)cc1Cl [I-005]	238
COC(=O)C(C)(C)Cn1c(=O)cc(Nc2ccc(OC(C)C)c(Cl)c2)n(Cc2ccc(Cl)cc2)c1=O [I-010]	10
CC(C)Oc1ccc(Nc2cc(=O)n(CC(C)(C)C(=O)O)c(=O)n2Cc2ccc(Cl)cc2)cc1Cl [I-012]	6
Cc1ccc(Cc2c(Nc3ccc(OC(C)C)cc3)[nH]c(=O)n(Cc3ccccc3)c2=O)cc1 [I-014]	404
COC(=O)C(C)(C)Cn1c(=O)cc(Nc2ccc(OC(C)C)c(F)c2)n(Cc2ccc(Cl)cc2)c1=O [I-020]	28
CC(C)Oc1ccc(Nc2ncc(Cc3ccccc3)c(=O)n2Cc2ccc(Cl)cc2)cc1Cl [I-022]	147
CC(C)Oc1ccc(Nc2nc(=O)c(Cc3ccccc3)cn2Cc2ccc(Cl)cc2)cc1Cl [I-023, 5-benzyl-1-(4-chlorobenzyl)-2-(3-chloro-4-isopropoxyphenylamino)pyrimidine-4(1H)-one]	148
CCOC(=O)c1cn(Cc2ccccc2)c(=O)cc1Nc1ccc(OC(C)C)c(Cl)c1 [I-046, 4-(3-chloro-4-isopropoxyphenylamino)-1-benzyl-5-(ethoxycarbonyl)pyridine-2(1H)-one]	395
CCOC(=O)c1cn(Cc2ccccc2)c(Nc2ccc(OC(C)C)c(Cl)c2)cc1=O [I-049]	796
CCOC(=O)c1cn(Cc2ccccc2)c(=O)cc1Nc1ccc(OC(C)C)c(Nc2ccc(OC(C)C)c(Cl)c2)c1 [I-061]	748
CC(C)Oc1ccc(Nc2ccc(Cc3nc(N(C)C)oc(=O)c3Cl)cc2)cc1F [I-063]	688
CC(C)Oc1ccc(Nc2cc(=O)n(Cc3ccccc3)cc2C(=O)c2ccc(Cl)cc2)cc1Cl [I-065, 4-(3-chloro-4-isopropoxyphenylamino)-1-benzyl-5-(4-chlorobenzoyl)pyridine-2(1H)-one]	128
CC(C)Oc1ccc(Nc2cc(=O)n(Cc3ccccc3)cc2Cc2ccc(Cl)cc2)cc1Cl [I-067, 4-(3-chloro-4-isopropoxyphenylamino)-1-benzyl-5-(4-chlorobenzyl)pyridine-2(1H)-one]	310
CC(C)Oc1ccc(Nc2cc(=O)n(Cc3ccccc3)cc2C(O)c2ccc(Cl)cc2)cc1Cl (stereo not drawn) [I-068, 4-(3-chloro-4-isopropoxyphenylamino)-1-benzyl-5-(4-chloro-α-hydroxybenzyl)pyridine-2(1H)-one]	105
CC(C)Oc1ccc(Nc2oc(Cc3ccccc3)nc2Cc2ccc(Cl)cc2)cc1F [I-070, 4-(4-chlorobenzyl)-2-benzyl-5-(3-fluoro-4-isopropoxyphenylamino)oxazole]	635
CCNc1ccc(Nc2ccc(OC(C)C)cc2)c(Cc2ccc(Cl)cc2)c1 [I-071, 1-(4-chlorobenzyl)-3-ethylamino-6-(4-isopropoxyphenylamino)benzene]	502
CCc1cnc(Nc2ccc(OC(C)C)c(F)c2)c(Oc2ccc(C)cc2)n1 [I-072, 5-ethyl-2-(3-fluoro-4-isopropoxyphenylamino)-3-(4-methylphenoxy)pyrazine]	749
CC(C)Oc1ccc(Nc2cc(=O)n(CC3COC(C)(C)OC3)c(=O)n2Cc2ccc(Cl)cc2)cc1Cl [I-094]	5

SMILES	IC50 [nM]
COC(=O)[C@@H](C)Cn1c(=O)cc(Nc2ccc(OC(C)C)c(Cl)c2)n(Cc2ccc(Cl)cc2)c1=O [I-095]	16
CC(C)Oc1ccc(Nc2nc(=O)c(/C=C/C(=O)O)cn2Cc2ccc(Cl)cc2)cc1Cl [I-097]	307
CCOC(=O)/C=C/c1cn(Cc2ccc(Cl)cc2)c(Nc2ccc(OC(C)C)c(Cl)c2)nc1=O [I-098]	233
CC(C)Oc1ccc(Nc2cc(=O)n(CC(CO)CO)c(=O)n2Cc2ccc(Cl)cc2)cc1Cl [I-099]	6
COC(=O)CCCn1c(=O)cc(Nc2ccc(OC(C)C)c(Cl)c2)n(Cc2ccc(Cl)cc2)c1=O [I-103]	14
COC(=O)Cn1c(=O)cc(Nc2ccc(OC(C)C)c(F)c2)n(Cc2ccc(Cl)cc2)c1=O [I-104, 1-(4-chlorobenzyl)-6-(3-fluoro-4-isopropoxyphenylamino)-3-(methoxycarbonylmethyl)pyrimidine-2,4(1H,3H)-dion]	96
CC(C)Oc1ccc(Nc2cc(=O)n(CC(=O)O)c(=O)n2Cc2ccc(Cl)cc2)cc1F [I-105, 1-(4-chlorobenzyl)-6-(3-fluoro-4-isopropoxyphenylamino)-3-(hydroxycarbonylmethyl)pyrimidine-2,4(1H,3H)-dion]	412
COC(=O)C(C)(C)Cn1c(=O)cc(Nc2cccc(C(F)(F)F)c2)n(Cc2ccc(Cl)cc2)c1=O [I-107]	51
COC(=O)C(C)(C)Cn1c(=O)cc(Nc2cccc(C(F)(F)F)n2)n(Cc2ccc(Cl)cc2)c1=O [I-108, 1-(4-chlorobenzyl)-3-(2-methoxycarbonyl-2-methylpropyl)-6-(6-trifluoromethyl-2-pyridylamino)pyrimidine-2,4(1H,3H)-dion]	61
CC(C)Oc1ccc(Nc2nc(OCCO)c3ccccc3c2C(=O)c2ccc(Cl)cc2)cc1F [I-110, 4-(4-chlorobenzoyl)-3-(3-fluoro-4-isopropoxyphenylamino)-1-(2-hydroxyethoxy)isoquinoline]	405
CC(C)Oc1ccc(NC2=CC(O)N(CC(=O)NC(CO)CO)C(=O)N2Cc2ccc(Cl)cc2)cc1F (stereo not drawn) [I-111]	11
CC(C)(CN1C(=O)N(Cc2ccc(Cl)cc2)C(Nc2cccc(C(F)(F)F)c2)=CC1O)C(=O)O (stereo not drawn) [I-113]	72
CC(C)(Cn1c(=O)cc(Nc2cccc(C(F)(F)F)n2)n(Cc2ccc(Cl)cc2)c1=O)C(=O)O [I-114, 1-(4-chlorobenzyl)-3-(2-hydroxycarbonyl-2-methylpropyl)-6-(6-trifluoromethyl-2-pyridylamino)pyrimidine-2,4(1H,3H)-dion]	160
CCOC(=O)CCC1=CN(Cc2ccc(Cl)cc2)C(Nc2ccc(OC(C)C)c(Cl)c2)=NC1O (stereo not drawn) [I-115]	51
CCOC(=O)CCC1CN(Cc2ccc(Cl)cc2)C(Nc2ccc(OC(C)C)c(Cl)c2)=NC1=O (stereo not drawn) [I-116]	315
CCOC(=O)c1cn(Cc2ccc(Cl)cc2)c(Nc2ccc(OC(C)C)c(Cl)c2)nc1=O [I-125]	243
CCOC(=O)c1cnc(Nc2ccc(OC(C)C)c(Cl)c2)n(Cc2ccc(Cl)cc2)c1=O [I-126]	50
CC(C)Oc1ccc(Nc2ncc(C(=O)O)c(=O)n2Cc2ccc(Cl)cc2)cc1Cl [I-129]	490
CCOC(=O)/C=C/c1cnc(Nc2ccc(OC(C)C)c(Cl)c2)n(Cc2ccc(Cl)cc2)c1=O [I-132, 2-(3-chloro-4-isopropoxyphenylamino)-3-(4-chlorobenzyl)-5-(2-ethoxycarbonylethenyl) pyrimidine-4(3H)-one]	206

SMILES	IC50 [nM]
CC(C)Oc1ccc(Nc2ncc(N3CCOCC3)c(=O)n2Cc2ccc(Cl)cc2)cc1F [I-138, 2-(3-fluoro-4-isopropoxyphenylamino)-3-(4-chlorobenzyl)-5-(morpholino)pyrimidine-4(3H)-one]	201
CC(C)Oc1ccc(Nc2ncc(/C=C/C(=O)O)c(=O)n2Cc2ccc(Cl)cc2)cc1Cl [I-139, 2-(3-chloro-4-isopropoxyphenylamino)-3-(4-chlorobenzyl)-5-(2-hydroxycarbonylethenyl) pyrimidine-4(3H)-one]	331
CC(C)Oc1ccc(Nc2nc(=O)c(C(=O)NCCO)cn2Cc2ccc(Cl)cc2)cc1F [I-146, 1-(4-chlorobenzyl)-2-(3-fluoro-4-isopropoxyphenylamino)-5-[N-(2-hydroxyethyl)carbamoyl]pyrimidine-4(1H)-one]	383
CCOC(=O)c1cn(Cc2ccc(Cl)cc2)c2cc(Nc3ccccc3)ccc2c1=O [I-148, 1-(4-chlorobenzyl)-7-(phenylamino)-3-(ethoxycarbonyl)quinoline-4(1H)-one]	324
CC(C)Oc1ccc(Nc2nc(=O)c(C(=O)NC(CO)CO)cn2Cc2ccc(Cl)cc2)cc1F [I-150]	120
CC(C)Oc1ccc(Nc2ncc(C(=O)NCCO)c(=O)n2Cc2ccc(Cl)cc2)cc1F [I-152]	96
CC(C)Oc1ccc(Nc2ncc(C(=O)NC(CO)CO)c(=O)n2Cc2ccc(Cl)cc2)cc1F [I-153]	59
CC(C)Oc1ccc(Nc2ncc(C(=O)N(C)CCO)c(=O)n2Cc2ccc(Cl)cc2)cc1F [I-156]	509
CCOC(=O)/C=C/c1cnc(Nc2ccc(OC(C)C)c(F)c2)n(Cc2ccc(Cl)cc2)c1=O [I-157]	589
CC(C)Oc1ccc(Nc2ncc(NC(=O)OC(C)(C)C)c(=O)n2Cc2ccc(Cl)cc2)cc1F [I-158]	20
COC(=O)[C@H](C)NC(=O)c1cnc(Nc2ccc(OC(C)C)c(F)c2)n(Cc2ccc(Cl)cc2)c1=O [I-164]	18
CNc1ncc(Nc2cccc(C(F)(F)F)c2)c(Cc2ccc(Cl)cc2)n1 [I-190]	990
COC(=O)[C@@H](C)NC(=O)c1cnc(Nc2ccc(OC(C)C)c(F)c2)n(Cc2ccc(Cl)cc2)c1=O [I-197]	98
CC(C)Oc1ccc(Nc2ncc(C(=O)N[C@@H](C)C(=O)O)c(=O)n2Cc2ccc(Cl)cc2)cc1F [I-201]	229
CC(C)Oc1ccc(Nc2ncc(N(C)C(=O)OC(C)(C)C)c(=O)n2Cc2ccc(Cl)cc2)cc1F [I-208]	50
CC(C)Oc1ccc(Nc2nc(=O)c(N3CCOCC3)cn2Cc2ccc(Cl)cc2)cc1F [I-209]	397
COC(=O)[C@@H](C)Cn1c(=O)cc(Nc2ccc(OC(C)C)c(C)c2)n(Cc2ccc(Cl)cc2)c1=O [I-212]	37
COC(=O)[C@@H](C)Cn1c(=O)cc(Nc2ccc(OC(C)C)cn2)n(Cc2ccc(Cl)cc2)c1=O [I-213]	427
COC(=O)[C@@H](C)Cn1c(=O)cc(Nc2ccc(OC(C)C)cc2)n(Cc2ccc(Cl)cc2)c1=O [I-216]	105
